For this assay, the system named is RS4; 11 with G101V mutation. The assay can be described thus: In vitro anti-proliferation assay (ATPlite luminescence) in BCL-2-dependent ALL cell line RS4;11 with G101V mutation. Type of assay: cell-based. The settings on record: read-out: RS411-G101V IC50. The method in brief: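 IC50 came from luminescent ATP quantification (ATPlite) following cell lysis. Compound dose ranges were applied for roughly 72 h to about 1×10^4 G101V-mutant RS4;11 cells per well, in 10% FBS medium.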

The mark [1] stands for this setting: cellular anti-proliferative IC50, about 72 hours, medium with 10% FBS, ATPlite.

Usually IC50 stands for the midpoint of a concentration-inhibition curve.

Like-named read-outs stand apart in the source and are kept apart here.

With `Cc1ccccc1[C@@H]1CN(Cc2ccc(N3CCOC[C@H]3C)c(F)c2)CCN1C1CC2(CCN(c3ccc(C(=O)NS(=O)(=O)c4ccc(NC[C@H]5CC[C@](C)(O)CC5)c([N+](=O)[O-])c4)c(N4c5cc6cc[nH]c6nc5O[C@H]5COCC[C@@H]54)c3)CC2)C1` [Example 155, 2-[(3R,8S)-2,5-dioxa-9,15,17-triazatetracyclo[8.7.0.0^{3,8}.0^{12,16}]heptadeca-1(10),11,13,16-tetraen-9-yl]-4-{2-[(2R)-4-({3-fluoro-4-[(3R)-3-methylmorpholin-4-yl]phenyl}methyl)-2-(2-methylphenyl)piperazin-1-yl]-7-azaspiro[3.5]nonan-7-yl}-N-[3-nitro-4-({[(1r,4r)-4-hydroxy-4-methylcyclohexyl]methyl}amino)benzenesulfonyl]benzamide], the 50% inhibitory concentration (IC50) under setting [1] turned out to be 0.0918 µM.
The same measure, in the same setting: with `Cc1ccccc1[C@@H]1CN(C2CCOCC2)CCN1C1CC2(CCN(c3ccc(C(=O)NS(=O)(=O)c4ccc(NCC5CCC(C)(O)CC5)c([N+](=O)[O-])c4)c(N4c5cc6cc[nH]c6nc5O[C@H]5COCC[C@@H]54)c3)CC2)C1` (stereo partly drawn) [Example 114, 2-[(3R,8S)-2,5-dioxa-9,15,17-triazatetracyclo[8.7.0.0^{3,8}.0^{12,16}]heptadeca-1(10),11,13,16-tetraen-9-yl]-4-{2-[(2R)-2-(2-methylphenyl)-4-(oxan-4-yl)piperazin-1-yl]-7-azaspiro[3.5]nonan-7-yl}-N-[3-nitro-4-({[(1r,4r)-4-hydroxy-4-methylcyclohexyl]methyl}amino)benzenesulfonyl]benzamide] the figure was 0.0118 µM; with `Cc1ccccc1[C@@H]1CN([C@H]2CCOc3cc(F)c(F)cc32)CCN1C1CC2(CCN(c3ccc(C(=O)NS(=O)(=O)c4cc5c(c([N+](=O)[O-])c4)N[C@H](C4CCOCC4)CO5)c(N4c5cc6cc[nH]c6nc5O[C@H]5COCC[C@@H]54)c3)CC2)C1` [Example 170, 4-{2-[(2R)-4-[(4S)-6,7-difluoro-3,4-dihydro-2H-1-benzopyran-4-yl]-2-(2-methylphenyl)piperazin-1-yl]-7-azaspiro[3.5]nonan-7-yl}-2-[(3R,8S)-2,5-dioxa-9,15,17-triazatetracyclo[8.7.0.0^{3,8}.0^{12,16}]heptadeca-1(10),11,13,16-tetraen-9-yl]-N-[(3R)-5-nitro-3-(oxan-4-yl)-3,4-dihydro-2H-1,4-benzoxazin-7-ylsulfonyl]benzamide], 0.205 µM; with `COc1cc(CN2CCN(C3CC4(CCN(c5ccc(C(=O)NS(=O)(=O)c6ccc(NCC7CCC(C)(O)CC7)c([N+](=O)[O-])c6)c(N6c7cc8cc[nH]c8nc7O[C@H]7COCC[C@@H]76)c5)CC4)C3)[C@@H](c3ccccc3OC(C)C)C2)cnc1OC` (stereo partly drawn) [Example 104, 4-{2-[(2S)-4-[(5,6-dimethoxypyridin-3-yl)methyl]-2-(2-isopropoxyphenyl)piperazin-1-yl]-7-azaspiro[3.5]nonan-7-yl}-2-[(3R,8S)-2,5-dioxa-9,15,17-triazatetracyclo[8.7.0.0^{3,8}.0^{12,16}]heptadeca-1(10),11,13,16-tetraen-9-yl]-N-[3-nitro-4-({[(1r,4r)-4-hydroxy-4-methylcyclohexyl]methyl}amino)benzenesulfonyl]benzamide], 0.0069 µM.
The same measure, in the same setting: with `Cc1cc2c(CN3CCN(C4CC5(CCN(c6ccc(C(=O)NS(=O)(=O)c7cc8c(c([N+](=O)[O-])c7)N[C@H](C7CCOCC7)CO8)c(N7c8cc9cc[nH]c9nc8O[C@H]8COCC[C@@H]87)c6)CC5)C4)[C@H](c4ccccc4C)C3)cnc(N3CCOC[C@@H]3C)c2o1` [Example 191, 2-[(3R,8S)-2,5-dioxa-9,15,17-triazatetracyclo[8.7.0.0^{3,8}.0^{12,16}]heptadeca-1(10),11,13,16-tetraen-9-yl]-4-{2-[(2R)-4-({2-methyl-7-[(3S)-3-methylmorpholin-4-yl]furo[2,3-c]pyridin-4-yl}methyl)-2-(2-methylphenyl)piperazin-1-yl]-7-azaspiro[3.5]nonan-7-yl}-N-[(3R)-5-nitro-3-(oxan-4-yl)-3,4-dihydro-2H-1,4-benzoxazin-7-ylsulfonyl]benzamide] the figure was 0.0142 µM.
On to `COc1cc(CN2CCN(C3CC4(CCN(c5ccc(C(=O)NS(=O)(=O)c6ccc(NCC7CCOCC7)c([N+](=O)[O-])c6)c(N6c7cc8cc[nH]c8nc7O[C@H]7COCC[C@@H]76)c5)CC4)C3)[C@@H](c3ccccc3OC(C)C)C2)cnc1N1CCOCC1` [Example 131, 2-[(3R,8S)-2,5-dioxa-9,15,17-triazatetracyclo[8.7.0.0^{3,8}.0^{12,16}]heptadeca-1(10),11,13,16-tetraen-9-yl]-4-{2-[(2S)-2-(2-isopropoxyphenyl)-4-{[5-methoxy-6-(morpholin-4-yl)pyridin-3-yl]methyl}piperazin-1-yl]-7-azaspiro[3.5]nonan-7-yl}-N-{3-nitro-4-[(oxan-4-ylmethyl)amino]benzenesulfonyl}benzamide], for which the half-maximal inhibitory concentration (IC50) under setting [1] was determined as 0.0346 µM.
Still for that read-out and setting: with `COc1cc(CN2CCN(C3CC4(CCN(c5ccc(C(=O)NS(=O)(=O)c6cc7c(c([N+](=O)[O-])c6)N[C@@H](C6CCC(C)(O)CC6)CO7)c(N6c7cc8cc[nH]c8nc7O[C@H]7COCC[C@@H]76)c5)CC4)C3)[C@@H](c3ccccc3OC(C)C)C2)cnc1N1CCOCC1` (stereo partly drawn) [Example 130, 2-[(3R,8S)-2,5-dioxa-9,15,17-triazatetracyclo[8.7.0.0^{3,8}.0^{12,16}]heptadeca-1(10),11,13,16-tetraen-9-yl]-4-{2-[(2S)-2-(2-isopropoxyphenyl)-4-{[5-methoxy-6-(morpholin-4-yl)pyridin-3-yl]methyl}piperazin-1-yl]-7-azaspiro[3.5]nonan-7-yl}-N-[(3S)-5-nitro-3-[(1r,4S)-4-hydroxy-4-methylcyclohexyl]-3,4-dihydro-2H-1,4-benzoxazin-7-ylsulfonyl]benzamide] the figure was 0.0131 µM; with `COc1c(N2CCOCC2)ncc2c1COC[C@H]2N1CCN(C2CC3(CCN(c4ccc(C(=O)NS(=O)(=O)c5cc6c(c([N+](=O)[O-])c5)N[C@H](C5CCOCC5)CO6)c(N5c6cc7cc[nH]c7nc6O[C@H]6COCC[C@@H]65)c4)CC3)C2)[C@H](c2ccccc2OC(C)C)C1` [Example 250, 2-[(3R,8S)-2,5-dioxa-9,15,17-triazatetracyclo[8.7.0.0^{3,8}.0^{12,16}]heptadeca-1(10),11,13,16-tetraen-9-yl]-4-{2-[(2R)-2-(2-isopropoxyphenyl)-4-[(4S)-8-methoxy-7-(morpholin-4-yl)-1H,3H,4H-pyrano[4,3-c]pyridin-4-yl]piperazin-1-yl]-7-azaspiro[3.5]nonan-7-yl}-N-[(3R)-5-nitro-3-(oxan-4-yl)-3,4-dihydro-2H-1,4-benzoxazin-7-ylsulfonyl]benzamide], 0.0101 µM.
As to `CC(C)Oc1ccccc1[C@@H]1CN([C@@H]2CCCOC2)CCN1C1CC2(CCN(c3ccc(C(=O)NS(=O)(=O)c4cc5c(c([N+](=O)[O-])c4)N[C@H](C4CCOCC4)CO5)c(N4c5cc6cc[nH]c6nc5O[C@H]5COCC[C@@H]54)c3)CC2)C1` [Example 174, 4-(2-((R)-2-(2-isopropoxyphenyl)-4-((R)-tetrahydro-2H-pyran-3-yl)piperazin-1-yl)-7-azaspiro[3.5]nonan-7-yl)-N-(((R)-5-nitro-3-(tetrahydro-2H-pyran-4-yl)-3,4-dihydro-2H-benzo[b][1,4]oxazin-7-yl)sulfonyl)-2-((5aS,9aR)-6,7,9,9a-tetrahydro-1H-pyrano[3,4-b]pyrrolo[3′,2′:5,6]pyrido[3,2-e][1,4]oxazin-5(5aH)-yl)benzamide], the IC50 (Homo sapiens, RS4-11, 72 h) worked out at 0.0465 µM.

The values above are taken from patent US20250114374A1, “BCL-2 INHIBITORS” (Newave Pharmaceutical Inc., priority 2021, published 2025).
